Reference: ChEMBL document CHEMBL5528053, “Discovery of Novel Isoquinoline Analogues as Dual Tubulin Polymerization/V-ATPase Inhibitors with Immunogenic Cell Death Induction” (J Med Chem, 2024)
Activity calls are given as the source filed them. No cut-off for these calls is given here.

Legend:
[1] = test system: DU-145; assay: Antiproliferative activity against human DU-145 cells assessed as inhibition of cell growth after 72 hrs by MTT assay; format: functional, cell-based; settings: DU-145, 72 h
[2] = target: Tubulin (Homo sapiens) (UniProt P68371+Q9H4B7+P0DPH7+P68366+Q13509+Q71U36+P04350+Q3ZCM7+P07437+P68363+Q9BQE3+Q6PEY2+Q13885+Q9BVA1+Q9BUF5); assay: Disruption of microtubule network in human PC-3 cells at 50 to 200 nM incubated for 6 to 24 hrs by immunofluorescence staining based confocal microscopy analysis relative to control; format: cell-based; settings: dose 50-200 nM, time 6-24 hrs
[3] = test system: PC-3; assay: Inhibition of V-ATPase activity in human PC-3 cells at 50 nM measured after 24 hrs by colorimetric assay relative to control; format: cell-based
[4] = test system: PC-3; assay: Inhibition of V-ATPase activity in human PC-3 cells at 100 nM measured after 24 hrs by colorimetric assay relative to control; format: cell-based
[5] = test system: PC-3; assay: Inhibition of V-ATPase activity in human PC-3 cells at 200 nM measured after 24 hrs by colorimetric assay relative to control; format: cell-based
[6] = test system: PC-3; assay: Inhibition of V-ATPase activity in human PC-3 cells at 400 nM measured after 24 hrs by colorimetric assay relative to control; format: cell-based
[7] = test system: PC-3; assay: Induction of cell cycle arrest in human PC-3 cells assessed as accumulation of cells at G1 phase at 50 nM incubated for 24 hrs by flow cytometry analysis (reference value: 49.4%); format: functional
[8] = test system: PC-3; assay: Induction of cell cycle arrest in human PC-3 cells assessed as accumulation of cells at G1 phase at 200 nM incubated for 24 hrs by flow cytometry analysis (reference value: 49.4%); format: functional
[9] = test system: PC-3; assay: Induction of cell cycle arrest in human PC-3 cells assessed as accumulation of cells at S phase at 100 nM incubated for 24 hrs by flow cytometry analysis (reference value: 31.3%); format: functional
[10] = test system: PC-3; assay: Induction of cell cycle arrest in human PC-3 cells assessed as accumulation of cells at S phase at 200 nM incubated for 24 hrs by flow cytometry analysis (reference value: 31.3%); format: functional
[11] = test system: PC-3; assay: Induction of cell cycle arrest in human PC-3 cells assessed as accumulation of cells at G2/M phase at 50 nM incubated for 24 hrs by flow cytometry analysis (reference value: 19.5%); format: functional
[12] = test system: PC-3; assay: Induction of cell cycle arrest in human PC-3 cells assessed as accumulation of cells at G2/M phase at 200 nM incubated for 24 hrs by flow cytometry analysis (reference value: 19.5%); format: functional
[13] = test system: PC-3; assay: Induction of cell cycle arrest in human PC-3 cells assessed as increase in histone H3at Ser10 residues at 50 to 200 nM incubated for 24 hrs by DAPI staining based analysis; format: functional; settings: dose 50-200 nM
[14] = test system: PC-3; assay: Induction of cell cycle arrest in human PC-3 cells assessed as reduction in cyclin B1 at 50 to 200 nM incubated for 24 hrs by DAPI staining based analysis; format: functional; settings: dose 50-200 nM
[15] = test system: PC-3; assay: Induction of apoptosis in human PC-3 cells assessed as viable cells at 100 nM measured after 24 hrs by annexin V-FITC and PI staining based flow cytometry analysis (reference value: 90.6%); format: functional; settings: read-out: Activity
[16] = test system: PC-3; assay: Induction of apoptosis in human PC-3 cells assessed as viable cells at 200 nM measured after 24 hrs by annexin V-FITC and PI staining based flow cytometry analysis (reference value: 90.6%); format: functional; settings: read-out: Activity
[17] = test system: PC-3; assay: Induction of apoptosis in human PC-3 cells assessed as early apoptotic cells at 50 nM measured after 24 hrs by annexin V-FITC and PI staining based flow cytometry analysis (reference value: 1.03%); format: functional
[18] = test system: PC-3; assay: Induction of apoptosis in human PC-3 cells assessed as necrotic cells at 50 nM measured after 24 hrs by annexin V-FITC and PI staining based flow cytometry analysis (reference value: 6.01%); format: functional
[19] = test system: PC-3; assay: Induction of apoptosis in human PC-3 cells assessed as necrotic cells at 200 nM measured after 24 hrs by annexin V-FITC and PI staining based flow cytometry analysis (reference value: 6.01%); format: functional
[20] = test system: PC-3; assay: Induction of apoptosis in human PC-3 cells assessed as increase in Cl-PARP level at 50 to 200 nM incubated for 24 hrs by Western blot analysis; format: functional, cell-based; settings: dose 50-200 nM
[21] = test system: HUVEC; assay: Disruption of vasculature in HUVEC cells assessed as interruption of tubelike network formation incubated for 6 hrs by inverted fluorescence microscope analysis; format: functional, cell-based; settings: Homo sapiens, dose 50-200 nM
[22] = test system: A549; assay: Inhibition of cell migration in human A549 cells at upto 100 nM incubated for 24 hrs by inverted fluorescence microscope analysis; format: functional, cell-based
[23] = Antitumor activity against mouse RM1 cells xenografted in immunocompetent […] mouse model assessed as tumor growth inhibition at 5 mg/kg, iv measured every two days for 14 days relative to control; format: functional; settings: RM1, 336 h, time 14 day, read-out: TGI
[24] = Toxicity in ICR mouse assessed as effect on BUN level at 10 mg/kg, ip measured for 14 days; format: organism-based; settings: in vivo, 336 h, time 14 day
[25] = Toxicity in ICR mouse assessed as effect on WBC count at 10 mg/kg, ip measured for 14 days; format: organism-based; settings: in vivo, 336 h, time 14 day
[26] = Toxicity in ICR mouse assessed as effect on CRE level at 10 mg/kg, ip measured for 14 days; format: organism-based; settings: in vivo, 336 h, time 14 day
[27] = Toxicity in ICR mouse assessed as effect on heart at 10 mg/kg, ip measured for 14 days by H and E staining based analysis; format: organism-based; settings: in vivo, 336 h, time 14 day
[28] = test system: PC-3; assay: Upregulation of intracellular eIF2alpha expression at […] residues in human PC-3 cells incubated for 24 hrs by DAPI staining based analysis; format: functional, cell-based; settings: dose 50-200 nM
[29] = test system: PC-3; assay: Induction of endoplasmic reticulum (ER) stress in human PC-3 cells assessed as upregulation of eIF2 alpha phosphorylation at […] residues at 50 to 200 nM measured after 24 hrs by Western blot analysis; format: functional, cell-based; settings: dose 50-200 nM
[30] = test system: PC-3; assay: Inhibition of autophagy in human PC-3 cells assessed as increase in number of autophagosomes at 50 to 200 uM measured after 3 hrs by immunofluorescence imaging based analysis; format: functional, cell-based; settings: dose 50-200 µM
[31] = Antitumor activity against mouse RM1 cells homografted in C57BL/6 mouse model assessed as tumor growth inhibition at 5 mg/kg, iv administered every two days for 14 days by vernier caliper based analysis relative to control; format: functional; settings: RM1, 336 h, time 14 day, read-out: TGI
[32] = Antitumor activity against mouse RM1 cells homografted in C57BL/6 mouse model assessed as tumor growth inhibition at 10 mg/kg, iv administered every two days for 14 days by vernier caliper based analysis relative to control; format: functional; settings: RM1, 336 h, time 14 day, read-out: TGI
[33] = Antitumor immunity against mouse RM1 cells homografted in C57BL/6 mouse model assessed as increase in tumor infiltrating lymphocytes at 10 mg/kg, iv administered every two days for 14 days by flow cytometry analysis (reference value: 5.26%); format: functional; settings: time 14 day
[34] = Antitumor immunity against mouse RM1 cells homografted in C57BL/6 mouse model assessed as increase in tumor infiltrating helper T lymphocytes at 5 mg/kg, iv administered every two days for 14 days by flow cytometry analysis (reference value: 6.59%); format: functional; settings: time 14 day

## COc1cc(-c2nc(C(N)=O)cc3cc4c(cc23)OCCO4)cc(Br)c1OC
[1]
  IC50: 110 nM
[2]
  Activity: Active
[3]
  inhibition: 15.8%
[4]
  inhibition: 26.2%
[5]
  inhibition: 36.7%
[6]
  inhibition: 60%
[7]
  Activity: 39.8%
[8]
  Activity: 17.9%
[9]
  Activity: 22.3%
[10]
  Activity: 17.1%
[11]
  Activity: 30.9%
[12]
  Activity: 65.8%
[13]
  Activity: Active
[14]
  Activity: Active
[15]
  viability at 0.1 µM: 61.7%
[16]
  viability at 0.2 µM: 50.9%
[17]
  Activity: 1.93%
[18]
  Activity: 6.91%
[19]
  Activity: 6.91%
[20]
  Activity: Active
[21]
  Activity: Active
[22]
  inhibition: Active
[23]
  inhibition in vivo at 5 mg/kg: 54.6%
[24]
  Activity: Non-Toxic
[25]
  Activity: Non-Toxic
[26]
  Activity: Non-Toxic
[27]
  Activity: Non-Toxic
[28]
  Activity: Dose-Dependent Effect
[29]
  Activity: Active
[30]
  inhibition: Active
[31]
  inhibition in vivo at 5 mg/kg: 61.6%
[32]
  inhibition in vivo at 10 mg/kg: 70.2%
[33]
  Activity: 8.03%
[34]
  Activity: 10.9%
